Where two headings read alike, the source gives them in different places. Blank lines part the entries; values can stand above or below the compound they belong to.
Experiments:
[1] = test system: RPS19-insufficient cord blood CD34+ HSPCs; assay: In vitro differentiation of cord blood CD34+ HSPCs transduced with shRNA against RPS19 (cell count and flow cytometry); assay type: cell-based, human
Procedure: Cells were plated at 2000 cell per well in 96-well plates in the presence or absence of doxycycline. Relative amounts of live cells were quantified by luciferase-based Cell titer-Glo® assay. b TGFβR1 inhibitors were assessed for their ability to increase cell expansion in RPS19-insuffiency. As a control, vehicle alone (no doxycycline) is represented at the far left while all other samples were treated with doxycycline to induce RPS19-insufficiency. c Kit^+ erythroid progenitors were grown in the absence of doxycycline and in the presence of 10 µM of indicated compound. In addition, cells were treated with 5 ng/ml of TGFβ1 for 5 days before being subjected to Cell titer-Glo® assay. d Differentiating cord blood CD34^+ progenitors were transduced with shRNA against luciferase or RPS19 and treated with inhibitors at working concentrations for TGFβ inhibition every three days. […] Cells were counted and CD235^+ erythroid (i and iii) and CD11b^+ myeloid cell (ii and iv) percentages were determined by flow cytometry. The number of erythroid or myeloid cells is expressed as a percentage of the number of that lineage with no cytokine or drug treatment. Bars represent means ± SD with individual data points overlaid. n = 3 independent experiments performed in triplicate. Statistics: two-tailed Student’s t test, significant *p < 0.05. Also see Supplementary Fig. 1. Erythroid expansion is depicted in red while myeloid is in purple. Source data are provided as a Source Data file.
Cells were counted and assessed for cell surface expression of CD235. b Lin-Kit^+ hematopoietic progenitors were obtained from three mouse embryos expressing tetracycline-inducible shRNA against RPS19 at day E14.5 or three untreated mice, and thee mature RPL11^+/+ or three mature RPL11^+/lox mice treated with tamoxifen for eight weeks. […] Values were expressed as a percentage relative to untreated controls. c, d Intracellular phosphorylation of NLK at Thr298 was determined by capillary electrophoresis using the Peggy Sue™ Automated Western blotting platform. After lysis, 4 µg of protein from the CD235^+ population was probed against pThr298-NLK and normalized to GAPDH. […] After counting the total cell population, the ratio of CD235^+ erythroblasts was determined by flow cytometry and number of CD235^+ erythroblasts calculated. This was expressed as a percentage of the average number of erythroid cells present in untreated healthy controls. f NLK phosphorylation was assessed by capillary electrophoresis as above. Bars represent means ± SD with individual data points overlaid. […] Statistics: two-tailed Student’s t test, significant *p < 0.05. Also see Supplementary Fig. 8. Source data are provided as a Source Data file.
Primary human CD34^+ hematopoietic stem and progenitor cells were purified from cord or peripheral blood (New York Blood Center) or from human fetal liver tissue (Advanced Bioscience Resources and University of California, Los Angeles Center for AIDS Research) by using magnetic-activated cell sorting (Miltenyi Biotec) and were cryopreserved. Upon thawing, cells were cultured in x-Vivo15 media (Lonza) containing 10% fetal bovine serum, fms-related tyrosine kinase 3 (50 ng/ml), […] (50 ng/ml), interleukin-3 (IL-3; 20 ng/ml), interleukin-6 (IL-6; 20 ng/ml), and stem cell factor (50 ng/ml). When applied, TGFβ1 was added at 5 ng/ml. Kp53A1 cells were obtained from Javier Leon and cultured in DMEM supplemented with 10% fetal bovine serum at 37 or 32 °C.

NLK = target: T1, NLK (Homo sapiens, UniProt Q9UBE8); assay: NLK in vitro kinase assay (NLK, c-Myb, Raptor substrates); assay type: biochemical
T1 construct: NLK, p38, or ALK5 for in vitro kinase assays were immunopurified from Kp53A1 cells; endogenous in cells; immunoprecipitated with anti-NLK (Abcam AB97642)
T1 sequence (Q9UBE8 1-527): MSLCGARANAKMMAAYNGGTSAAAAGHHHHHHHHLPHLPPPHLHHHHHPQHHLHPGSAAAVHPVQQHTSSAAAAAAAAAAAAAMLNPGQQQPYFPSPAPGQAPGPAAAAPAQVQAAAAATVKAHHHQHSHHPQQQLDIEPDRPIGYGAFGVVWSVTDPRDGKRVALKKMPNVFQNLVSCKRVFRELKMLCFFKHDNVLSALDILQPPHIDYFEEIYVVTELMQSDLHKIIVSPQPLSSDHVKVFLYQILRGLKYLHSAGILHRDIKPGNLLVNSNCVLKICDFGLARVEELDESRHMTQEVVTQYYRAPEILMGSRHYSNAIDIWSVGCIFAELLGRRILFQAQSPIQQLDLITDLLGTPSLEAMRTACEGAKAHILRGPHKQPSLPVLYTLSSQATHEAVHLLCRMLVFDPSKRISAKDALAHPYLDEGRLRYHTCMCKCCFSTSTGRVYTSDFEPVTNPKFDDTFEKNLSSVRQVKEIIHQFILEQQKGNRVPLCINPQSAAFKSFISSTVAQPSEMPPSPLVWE
Procedure: Equivalent protein was loaded between samples. b—blue Transduced progenitors were differentiated for 15 days and sorted for surface expression of CD235 + , CD41 + and CD11b + population NLK mRNA was assessed by qRT-PCR. c Control and shRPS19-transduced CB progenitors were differentiated for 10 days prior to separation into CD71^+ and CD71^- populations and assessed for pThr298-NLK phosphorylation by Western blot analysis. d—purple CB CD34 + progenitors were transduced with shRNA against luciferase (shLuc) or RPS19 (shRPS19) along with CFP-NLK and YFP-NLK and differentiated for 10 days. NLK dimerization was quantified by FRET. e—left panel NLK was immunoprecipitated from transduced differentiating CD71^+ and CD71^- populations after 10 days, and incubated in the presence of ATP, Mg^2+ and dephosphorylated NLK (i orange), c-Myb (ii—blue) and Raptor (iii—green) for 30 min at 37 °C. Phosphorylation was detected by a combination of anti^-phosphoserine-HRP and anti-phosphothreonine-HRP antibodies, or mouse anti-phosphoserine and anti-mouse-HRP antibodies. e—right panel For comparison, NLK in vitro kinase activity was assessed from CD235^+, CD41^+ and CD11b^+ populations enriched after identical treatments. f A panel of eight small molecule p38 inhibitors were titrated into in vitro kinase assays in the presence of activated NLK or p38 from stimulated Kp53A1 cells. The IC50 for NLK and p38 for each compound was calculated. The data are represented diagrammatically with IC50 values represented as vertical lines along a concentration gradient for NLK and p38. Kinase activity is represented as blue and the extent of inhibition is depicted in white. […] Bars represent means ± SD with individual data points overlaid. n = 3 independent experiments performed in triplicate.Statistics: two-tailed Student’s t test, significant *p < 0.05. Also see Supplementary Figs. 3 and 4. Source data are provided as a Source Data file. […] Inhibitors were added to cells at indicated concentrations with a final DMSO concentration of 0.5%. […] IC50 calculations were obtained using 8–9 concentrations of compound and generated using the IC50 Calculator software by AAT Bioquest®. NLK, p38, or ALK5 for in vitro kinase assays were immunopurified from Kp53A1 cells. NLK activation was induced by incubating cells at 32° for 24-48 h, p38 by stimulating with IL-3, IL-6, SCF, and Epo at the same concentrations used for differentiating erythroid progenitors.
For NLK kinase analysis, cultures were treated as indicated and lysed for 30 min at 4 °C in 750 μl of kinase lysis buffer (50 mM Tris [pH 7.4], 5 mM EDTA, 250 mM NaCl, 0.1% Triton X-100, 50 mM NaF, 0.1 trypsin inhibitor unit of aprotinin per ml, 50 μg of phenylmethylsulfonyl fluoride per ml, 100 μM sodium vanadate, 1 μg of leupeptin per ml). For TGFβR1 kinase analysis, cells were lysed in membrane kinase buffer (10 mM Tris-HCl (pH8.0), 140 mM NaCl, 300 mM KCl, 0.5% Triton X-100, and 0.5% sodium deoxycholate with complete protease inhibitor cocktail (Roche)). Extracts were clarified, and equivalent protein was incubated overnight at 4 °C with antibody (NLK: #AB97642; Abcam, TGFβR1: V22; Santa Cruz Biotechnology). Immune complexes were collected with Catch and Release® V2.0 Reversible Immunoprecipitation System and diluted in kinase buffer (25 mM Tris [pH 7.4], 10 mM MgCl2, 1 mM dithiothreitol). When cell numbers were limiting, NLK activity was amplified by adding 0.5 µg dephosphorylated NLK prior to performing kinase reaction. 50 μl of kinase buffer containing NLK or TGFβR1 sample and 5 μM ATP was incubated in the presence of biotinylated substrate (NLK, c-Myb, or Raptor for NLK and Smad2 or Smad3 for TGFβR1) immobilized on streptavidin-coated 96-well plates.

p38 = conditions: reported, no reference given; read-out: reported IC50 against p38; cited from earlier work
[2] = test system: ribosome-competent cord blood CD34+ HSPCs (shLuc); assay: In vitro differentiation of cord blood CD34+ HSPCs transduced with control shRNA (luciferase); assay type: cell-based, human; conditions: ribosome-competent cells; 5 ng/ml TGFβ1; 5 µM compound; 15 days; Fig. 1e
Procedure: Lin-Kit^+ fetal liver cells were obtained from mouse embryos expressing tet-on shRNA against RPS19, at day E14.5-15.5. Cells were plated at 2000 cell per well in 96-well plates in the presence or absence of doxycycline. Relative amounts of live cells were quantified by luciferase-based Cell titer-Glo® assay. b TGFβR1 inhibitors were assessed for their ability to increase cell expansion in RPS19-insuffiency. As a control, vehicle alone (no doxycycline) is represented at the far left while all other samples were treated with doxycycline to induce RPS19-insufficiency. c Kit^+ erythroid progenitors were grown in the absence of doxycycline and in the presence of 10 µM of indicated compound. In addition, cells were treated with 5 ng/ml of TGFβ1 for 5 days before being subjected to Cell titer-Glo® assay. d Differentiating cord blood CD34^+ progenitors were transduced with shRNA against luciferase or RPS19 and treated with inhibitors at working concentrations for TGFβ inhibition every three days. […] Cells were counted and CD235^+ erythroid (i and iii) and CD11b^+ myeloid cell (ii and iv) percentages were determined by flow cytometry. The number of erythroid or myeloid cells is expressed as a percentage of the number of that lineage with no cytokine or drug treatment. […]
Fig. 8 NLK inhibition increases expansion of erythroid progenitors from human and murine models of DBA. a Human cord blood CD34^+ progenitors were transduced with lentivirus co-expressing GFP with shRNA against luciferase (shLuc), RPS19 (shRPS19), or RPL11 (shRPL11). […] Cells were counted and assessed for cell surface expression of CD235. b Lin-Kit^+ hematopoietic progenitors were obtained from three mouse embryos expressing tetracycline-inducible shRNA against RPS19 at day E14.5 or three untreated mice, and thee mature RPL11^+/+ or three mature RPL11^+/lox mice treated with tamoxifen for eight weeks. […] Values were expressed as a percentage relative to untreated controls. c, d Intracellular phosphorylation of NLK at Thr298 was determined by capillary electrophoresis using the Peggy Sue™ Automated Western blotting platform. […]

[3] = Fig. 3f, activated NLK from stimulated Kp53A1 cells, read-out: NLK Observed IC50

SMILES: Cc1cccc(-c2nn3c(c2-c2ccnc4ccc(C(N)=O)cc24)CCC3)n1 [Galunisertib]
increase of erythropoiesis in RPS19-insufficiency compared with control treated cells ([1]; CD235+ erythroid cells after 15 days, inhibitors at working concentrations for TGFβ inhibition every three days, Fig. 1d): 3.2 fold
IC50 (NLK; Supplementary Fig. 1e, read-out: IC50 against NLK): 1340 nM
inhibition of NLK-mediated phosphorylation of NLK substrates NLK, c-Myb and Raptor (NLK; added to activated NLK in vitro, Supplementary Fig. 1c): 40–45%
IC50 (p38): 405 nM

IC50 (NLK; [3]): 9300 nM
SMILES: CCc1nc(-c2cccc(C)c2)c(-c2ccnc(NC(=O)c3ccccc3)c2)s1 [TAK-715]

IC50 (NLK; [3]): 3.6 nM
SMILES: Cn1c(NC[C@@H](N)Cc2ccccc2)nc(-c2ccncc2)c(-c2ccc3ccccc3c2)c1=O [AMG-548]

SMILES: Cc1cccc(-c2[nH]c(C(C)(C)C)nc2-c2ccc3nccnc3c2)n1 [SB525334]
erythropoiesis, % of controls, in TGFβ-treated cells ([1]; RPS19-insufficient cells, 5 ng/ml TGFβ1, 5 µM, Fig. 1e.iii): 128.6%
effect on erythropoiesis of cells not treated with TGFβ ([1]; RPS19-insufficient cells, 5 µM, Fig. 1e.iii): did not influence
restoration of erythroid and myeloid expansion of TGFβ-treated cells [2]: restored

SMILES: C[S+]([O-])c1ccc(-c2nc(-c3ccncc3)c(-c3ccc(F)cc3)[nH]2)cc1 (centres unmarked) [SB203580]
erythroid expansion (CD235) in RPS19-insufficient HSPCs ([1]; 12 days, recommended concentrations, rebuttal Experiment 12): significantly increased
improvement of erythropoiesis (comparison of SD208 with p38 inhibitors) ([1]; CD235+, 12 days, recommended concentrations, Supplementary Fig. 2b): improved erythropoiesis
